Results: patent publication US20070213278A1, “Arrays with cleavable linkers” (priority 2004, published 2007)
pKd: −log10 of the molar value. Marks after values point to notes of the source that are not given here.

Key:
2G12 antibody [1] = assay: 2G12 binding, cleavable linker glycan array in microtiter plates (Example 10); design: species or system human; settings: for 2G12 epitope / affinity: cleavable linker array
Protocol: Cleavable Linker Glycan Array in Microtiter Plates: Further experiments were performed using glycans immobilized within microtiter wells with the cleavable triazole linkers described in Example 7 as shown in FIG. 11.
2G12 Binding: After washing with QH2O, wells were blocked with 10 mM HEPES buffer, pH 7.5/150 mM NaCl buffer (200 μL) containing 0.1% Tween-20 over 1 h at 4° C. The buffer was then removed and 2G12 (17 μg/mL PBS buffer; 200 μL) was incubated in the well over 1 h at 4° C. Wells were then washed with PBS buffer (3×; 200 μL) and fluorescein-conjugated Goat Anti-Human IgG antibody (14 μg/mL PBS buffer; 200 μL) was incubated in the well over 1 h in the dark at 4° C. Wells were then washed with PBS buffer (3×; 200 μL) and fluorescence was measured with an excitation wavelength of 485 nm and emission wavelength of 535 nm.
Further studies were performed using a cleavable linker array to clarify the types of mannose-containing glycans bound by the 2G12 anti-HIV antibodies. […] The results of a binding study using increasing amounts of labeled Manα1,2Manα1,3Manα1,2 Manα1,6Man glycan with a constant amount of 2G12 antibody are shown in FIG. 16.

[2] = test system: 2G12 binding to gp120JR-CSF; assay: Solution phase ELISA, oligomannose inhibition of 2G12 binding to gp120; design: species or system human; settings: oligomannose at 0.5 mM
Protocol: Enzyme-linked immunosorbent assay. Microtiter plate wells (flat bottom, Costar type 3690; Corning Inc.) were coated with 50 ng/well gp120JR-CSF overnight at 4° C. All subsequent steps were performed at room temperature. The wells were then washed four times with PBS/0.05% (vol/vol) Tween20 (Sigma) using a microplate washer (SkanWash 400, Molecular Devices) prior to blocking for 1 hr with 3% (mass/vol) BSA. IgG 2G12, diluted to 0.5 μg/mL (25 ng/well) with 1% (mass/vol) BSA/0.02% (vol/vol) Tween20/PBS (PBS-BT), was then added for 2 hrs to the antigen-coated wells in the presence of serially-diluted oligomannoses starting at 2 mM.
Unbound antibody was removed by washing four times, as described above. Bound 2G12 was detected with an alkaline phosphatase-conjugated goat anti-human IgG F(ab′)2 antibody (Pierce) diluted 1:1000 in PBS-BT. After 1 hr, the wells were washed four times and bound antibody was visualized with p-nitrophenol phosphate substrate (Sigma) and monitored at 405 nm.
Solution Phase ELISA Assay Analysis of Oligomannose 1-8 Inhibition of 2G12 Binding. Man9GlcNAc2 1 and deprotected oligomannoses 2-6 and 7-9 (see FIG. 17) were evaluated for their ability to inhibit the interaction between 2G12 and gp120 in a solution phase enzyme-linked immunosorbent assay (ELISA). […]

chST6GalNAc-I = target: T1, chST6GalNAc-I (Gallus gallus, UniProt Q92183); assay: chST6GalNAc-I activity on small acceptor molecules; assay type: biochemical, chicken; settings: α-D-galacto derivatives as acceptors
T1 construct: made in house; host or cells: insect cells
T1 sequence (Q92183 whole entry): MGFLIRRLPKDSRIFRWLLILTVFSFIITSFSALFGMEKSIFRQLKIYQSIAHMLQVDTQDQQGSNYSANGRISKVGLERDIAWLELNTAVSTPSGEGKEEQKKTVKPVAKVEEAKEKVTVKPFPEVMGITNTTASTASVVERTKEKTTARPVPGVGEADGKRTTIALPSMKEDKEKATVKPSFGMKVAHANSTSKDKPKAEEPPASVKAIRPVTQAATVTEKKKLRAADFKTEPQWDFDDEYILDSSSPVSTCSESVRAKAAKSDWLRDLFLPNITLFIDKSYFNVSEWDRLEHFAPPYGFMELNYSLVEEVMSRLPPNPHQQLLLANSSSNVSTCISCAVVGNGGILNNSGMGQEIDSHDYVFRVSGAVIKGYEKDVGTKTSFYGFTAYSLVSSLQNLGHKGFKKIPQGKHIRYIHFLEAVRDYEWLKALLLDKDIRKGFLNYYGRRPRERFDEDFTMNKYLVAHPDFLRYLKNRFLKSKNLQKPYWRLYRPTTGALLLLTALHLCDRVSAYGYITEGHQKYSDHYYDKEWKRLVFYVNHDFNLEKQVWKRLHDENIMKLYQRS
Text: The inventors have previously reported the cloning, expression, and characterization of chicken ST6GalNAc-I and its use in preparative synthesis of the O-linked sialoside antigens, STn-, α(2-6)SiaT-, α(2-3)SiaT- and Di-SiaT-antigen. Blixt, O.; Allin, K.; Pereira, L.; Datta, A. and Paulson, J. C., J. Am. Chem. Soc. 2002, 124, 5739-5746. Briefly, the recombinant enzyme was expressed in insect cells and purified by CDP-sepharose affinity chromatography to generate approximately 10 U/L of cell culture.

2G12 anti-HIV antibody = assay: 2G12 binding to glycan array printed on glass slide; design: species or system human; settings: for Rel. spec. (relative binding activity of 2G12): glycan array on glass slide, 2G12 pre-complexed with anti-IgG-FITC; for 2G12 binding on glycan array: initial experiments
Text: The natural high mannose type N-glycans used for the analysis were purified from pronase treated bovine ribonuclease B on Dionex. Each preparation was a single molecular weight species as determined by MALDI-MS.
Construction of a glycan array printed on a glass slide: The library of carbohydrate structures was obtained through chemical and chemo-enzymatic synthesis as described above, as well as natural sources. This compound library contained a N-hydroxy succinimide (NHS)-reactive primary amino group, which was printed on a commercial NHS-activated glass surface (Accelr8 Technology Corporation, Denver, Colo.) using a microarray gene printer (TSRI).
Each glycan type was printed (≈0.5 nL/spot) at various concentrations (10-100 μM) and each concentration in a replicate of six. Slides were further incubated with ethanolamine buffer to deactivate remaining NHS functional groups.
The 2G12 antibody was pre-complexed (for 10 min) with secondary human anti-IgG-FITC (2:1, 20 μg/mL) prior to application to the glycan array. After incubation with the 2G12 antibodies, the array washed by dipping the slide in buffer and water.

2G12 antibody [3] = assay: Carbohydrate microarray analysis, microtiter plate, oligomannose-2G12 dissociation constants (Example 11); assay type: binding, human; settings: microtiter plate array
Protocol: Carbohydrate microarray analysis. Ninety-six well NHS-coated microtiter plates (NoAb Biodiscoveries) were treated with 200 μL of a 1 mM methanolic solution of the amino-functionalized disulfide and alkyne containing linker (scheme V) containing 5% diisopropylethylamine (DIEA) and incubated overnight at 4° C. The microtiter plate was then washed with 2×200 μL methanol and 2×200 μL water. Next, 200 μL solutions of azido-functionalized oligomannose derivatives 21-25 at varying concentrations from 0 to 500 μM in 5% DIEA/methanol were introduced. A sprinkle of copper (I) iodide was added and the contents were allowed to react overnight at 4° C. The next day, the contents were removed and the plates were washed with 2×200 μL methanol and 2×200 μL water. The plates were then blocked with 0.1% Tween20 solution in HEPES buffer pH 7.5 at 4° C. for 1 hour and then washed with 3×200 μL HEPES buffer. […] Detection of the FITC-tagged secondary antibody was performed in 200 μL water using a fluorescence plate reader. […]
Carbohydrate Microarray Analysis. […] Kd values for the interaction of 2G12 with oligomannoses 4, 5, 7, 8, 9 (Table 9) were determined using a microtiter-based assay with detection via a fluorescent secondary antibody (see Bryan et al.(2004) J. Am. Chem. Soc. 126, 8640-41).

Row | Compound | chST6GalNAc-I activity, cpm (chST6GalNAc-I) [cpm] | chST6GalNAc-I activity, nmol/mg × min^−1 (chST6GalNAc-I) | Rel. spec. (relative binding activity of 2G12) (2G12 anti-HIV antibody) | further results
1 | Manα1,2 Manα1,2Manα1,3Man |  |  |  | pKd (2G12 antibody [1]; binding to 2G12, cleavable linker array): 7.00; 2G12 epitope / affinity (2G12 antibody [1]): optimal epitope(s) with micromolar affinity to 2G12
2 | Oligomannose 3 |  |  |  | inhibition (%) of 2G12 binding to gp120 [2]: 15.8%
3 | OCC1O[C@@H](O)C(O)[C@@H](O)[C@@H]1O[C@@H]1OC(CO)[C@H](O)[C@H](O)C1O (some centres unmarked) [Compound 4] | 3043 | 2.90 nmol/mg × min^−1 | − (− = <1000) | 
4 | Man-8#aa Man8-aminoacid [Glycan 144] |  |  |  | 2G12 binding on glycan array (2G12 anti-HIV antibody): Binding was observed
5 | NCCCCCO[C@H]1O[C@H](CO[C@H]2O[C@H](CO)[C@@H](O)[C@H](O)[C@@H]2O[C@H]2O[C@H](CO)[C@@H](O)[C@H](O)[C@@H]2O)[C@@H](O)[C@H](O[C@H]2O[C@H](CO)[C@@H](O)[C@H](O)[C@@H]2O[C@H]2O[C@H](CO)[C@@H](O)[C@H](O)[C@@H]2O)[C@@H]1O [Oligomannose 5] |  |  |  | 2G12 binding affinity (2G12 antibody [3]): greatest affinity
6 | Manα1,2Manα1,3Manα1,2 Manα1,6Man |  |  |  | 2G12 epitope / affinity (2G12 antibody [1]): optimal epitope(s) with micromolar affinity to 2G12
7 | O=[N+]([O-])c1ccc(O[C@@H]2OC(CO)[C@@H](O[C@@H]3OC(CO)[C@H](O)[C@H](O)C3O)[C@H](O)C2O)cc1 (some centres unmarked) [Compound 5] | 1421 | 1.30 nmol/mg × min^−1 | − (− = <1000) | 
8 | Man-9#aa Man9-aminoacid [Glycan 145] |  |  |  | 2G12 binding on glycan array (2G12 anti-HIV antibody): smaller level of binding
9 | CC(=O)N[C@H]1C(O)O[C@H](CO)[C@H](O)[C@@H]1O (stereo partly drawn) [D-GalNAc, reference compound] |  | 0.00 nmol/mg × min^−1 |  | 
10 | CC(=O)N[C@H]1C(O)O[C@H](CO)[C@@H](O[C@@H]2O[C@H](CO)[C@H](O)[C@H](O)[C@H]2O)[C@@H]1O (some centres unmarked) [Compound 6] | 13277 | 12.50* nmol/mg × min^−1 | − (− = <1000) | 
